# Results published in ChEMBL document CHEMBL1144207, “Molecular design of potent tyrosinase inhibitors having the bibenzyl skeleton” (Bioorg Med Chem Lett, 2008).
# Molecular target: T1, Tyrosinase (Agaricus bisporus, UniProt O42713)
# T1 sequence (O42713 whole entry): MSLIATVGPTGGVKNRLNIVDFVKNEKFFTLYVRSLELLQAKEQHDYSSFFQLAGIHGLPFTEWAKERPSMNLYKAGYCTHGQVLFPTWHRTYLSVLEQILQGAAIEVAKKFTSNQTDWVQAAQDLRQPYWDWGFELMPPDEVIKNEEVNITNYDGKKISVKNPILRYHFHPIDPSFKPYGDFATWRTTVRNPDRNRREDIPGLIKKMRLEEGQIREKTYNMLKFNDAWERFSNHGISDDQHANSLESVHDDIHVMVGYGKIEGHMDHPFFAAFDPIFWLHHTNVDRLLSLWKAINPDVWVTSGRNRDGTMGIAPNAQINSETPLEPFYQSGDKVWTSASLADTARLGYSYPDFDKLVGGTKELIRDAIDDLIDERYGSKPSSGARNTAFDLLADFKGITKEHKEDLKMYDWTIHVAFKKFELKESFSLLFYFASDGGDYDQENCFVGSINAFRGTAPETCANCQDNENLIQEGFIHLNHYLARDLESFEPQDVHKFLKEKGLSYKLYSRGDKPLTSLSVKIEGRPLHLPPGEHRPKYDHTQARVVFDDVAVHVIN
# Description: Inhibition of mushroom tyrosinase
row,IC50,Structure (SMILES)
1,1.6 µM,Oc1ccc(CCc2ccc(O)cc2O[C@@H]2OC[C@@H](O)[C@H](O)[C@H]2O)c(O)c1
2,0.43 µM,Oc1ccc(CCc2ccc(O[C@@H]3OC[C@@H](O)[C@H](O)[C@H]3O)cc2O)c(O)c1
